Entries after “also recorded” stand apart in the source; their conditions may differ.
Experiments:
[1] = Tamper resistance: solvent hydrolysis studies; assay type: physicochemical
Protocol: In order to further evaluate the tamper-resistant properties of Bz-HC, a wide variety of Bz-HC solvent extraction studies were performed. […] The prodrug is not cleaved and no hydrocodone becomes available. […] We also conducted a wide variety of Bz-HC solvent hydrolysis studies in our own laboratories.

[2] = system: trypsin, pancreatin, pepsin and various esterases; test: Enzymatic tampering studies; assay type: in vitro ADME
Source text: Without being bound by theory, it is believed that metabolism of Bz-HC after oral administration that allows for the rapid release of therapeutic amounts of hydrocodone requires the combinations and processes of the esterases and other enzymes functioning in the living enterocytes and liver tissue inside the body.

[3] = Example 20: intact Bz-HC in plasma samples of Examples 13-18; assay type: in vivo; conditions: humans, oral, LLOQ
Protocol: Validated LC/MS/MS methods were used to measure plasma concentrations of Bz-HC, hydrocodone, hydromorphone and acetaminophen (APAP). The lower limits of quantitation (LLOQ) for Bz-HC, hydrocodone, hydromorphone, and APAP in plasma were 25 pg/mL, 250 pg/mL, 25 pg/mL, and 0.025 μg/mL, respectively for examples 14-18. For example 13, the lower limits of quantitation (LLOQ) for Bz-HC, hydrocodone, hydromorphone were 0.5 ng/mL.
LC/MS/MS analyses were performed in order to attempt to measure intact Bz-HC concentrations in the plasma samples obtained from any of the blood samples described above in Examples 13-18. However, all plasma concentrations of intact Bz-HC were <LLOQ (25 pg/mL) and no PK analyses could be performed

Oral PK profiles in dogs = conditions: equivalent to 2 mg/kg hydrocodone freebase
[4] = Water solubility / feasibility of intranasal or intravenous dosing
[5] = Example 22: intranasal crushed / oral intact tablets human PK study vs HB/APAP
[6] = Oral PK profiles in rats (plasma hydrocodone, hydromorphone, intact Bz-HC by LC/MS/MS); conditions: equivalent to 2 mg/kg hydrocodone freebase
[7] = human, plasma, inhaled or intranasal, 13.34 mg

SMILES: COc1ccc2c3c1OC1C(OC(=O)c4ccccc4)=CCC4C(C2)N(C)CCC314 (stereo not drawn) [Bz-HC, benzoate-hydrocodone]
- %-release of Hydrocodone ([1]; Acetone, ambient temperature, 0.5 h): 0%
- %-release of Hydrocodone ([1]; Acetone, ambient temperature, 1 h): 0%
- %-release of Hydrocodone ([1]; Acetone, ambient temperature, 4 h): 0%
- %-release of Hydrocodone ([1]; Acetone, at boiling point, 0.5 h): 0%
- %-release of Hydrocodone ([1]; Acetone, at boiling point, 1 h): 0%
- %-release of Hydrocodone ([1]; Acetone, at boiling point, 4 h): 0%
- %-release of Hydrocodone ([1]; Ethanol, ambient temperature, 0.5 h): 0%
- %-release of Hydrocodone ([1]; Ethanol, ambient temperature, 1 h): 0%
- %-release of Hydrocodone ([1]; Ethanol, ambient temperature, 4 h): 0%
- %-release of Hydrocodone ([1]; Ethanol, at boiling point, 0.5 h): 0%
- %-release of Hydrocodone ([1]; Ethanol, at boiling point, 1 h): 0%
- %-release of Hydrocodone ([1]; Ethanol, at boiling point, 4 h): 0%
- %-release of Hydrocodone ([1]; Ethyl acetate, ambient temperature, 0.5 h): 0%
- %-release of Hydrocodone ([1]; Ethyl acetate, ambient temperature, 1 h): 0%
- %-release of Hydrocodone ([1]; Ethyl acetate, ambient temperature, 4 h): 0%
- %-release of Hydrocodone ([1]; Ethyl acetate, at boiling point, 0.5 h): 0%
- %-release of Hydrocodone ([1]; Ethyl acetate, at boiling point, 1 h): 0%
- %-release of Hydrocodone ([1]; Ethyl acetate, at boiling point, 4 h): 0%
- %-release of Hydrocodone ([1]; Methanol, ambient temperature, 0.5 h): 0%
- %-release of Hydrocodone ([1]; Methanol, ambient temperature, 1 h): 0%
- %-release of Hydrocodone ([1]; Methanol, ambient temperature, 4 h): 0%
- %-release of Hydrocodone ([1]; Methanol, at boiling point, 0.5 h): 0%
- %-release of Hydrocodone ([1]; Methanol, at boiling point, 1 h): 0%
- %-release of Hydrocodone ([1]; Methanol, at boiling point, 4 h): 0%
- %-release of Hydrocodone ([1]; Methyl ethyl ketone, ambient temperature, 0.5 h): 0%
- %-release of Hydrocodone ([1]; Methyl ethyl ketone, ambient temperature, 1 h): 0%
- %-release of Hydrocodone ([1]; Methyl ethyl ketone, ambient temperature, 4 h): 0%
- %-release of Hydrocodone ([1]; Methyl ethyl ketone, at boiling point, 0.5 h): 0%
- %-release of Hydrocodone ([1]; Methyl ethyl ketone, at boiling point, 1 h): 0%
- %-release of Hydrocodone ([1]; Methyl ethyl ketone, at boiling point, 4 h): 0%
- %-release of Hydrocodone ([1]; Octane, ambient temperature, 0.5 h): 0%
- %-release of Hydrocodone ([1]; Octane, ambient temperature, 1 h): 0%
- %-release of Hydrocodone ([1]; Octane, ambient temperature, 4 h): 0%
- %-release of Hydrocodone ([1]; Octane, at boiling point, 0.5 h): 0%
- %-release of Hydrocodone ([1]; Octane, at boiling point, 1 h): 0%
- %-release of Hydrocodone ([1]; Octane, at boiling point, 4 h): 0%
- %-release of Hydrocodone ([1]; Petrol ether, ambient temperature, 0.5 h): 0%
- %-release of Hydrocodone ([1]; Petrol ether, ambient temperature, 1 h): 0%
- %-release of Hydrocodone ([1]; Petrol ether, ambient temperature, 4 h): 0%
- %-release of Hydrocodone ([1]; Petrol ether, at boiling point, 0.5 h): 0%
- %-release of Hydrocodone ([1]; Petrol ether, at boiling point, 1 h): 0%
- %-release of Hydrocodone ([1]; Petrol ether, at boiling point, 4 h): 0%
- %-release of Hydrocodone ([1]; Tetrahydrofuran, ambient temperature, 0.5 h): 0%
- %-release of Hydrocodone ([1]; Tetrahydrofuran, ambient temperature, 1 h): 0%
- %-release of Hydrocodone ([1]; Tetrahydrofuran, ambient temperature, 4 h): 0%
- %-release of Hydrocodone ([1]; Tetrahydrofuran, at boiling point, 0.5 h): 0%
- %-release of Hydrocodone ([1]; Tetrahydrofuran, at boiling point, 1 h): 0%
- %-release of Hydrocodone ([1]; Tetrahydrofuran, at boiling point, 4 h): 0%
- %-release of Hydrocodone ([1]; Toluene, ambient temperature, 0.5 h): 0%
- %-release of Hydrocodone ([1]; Toluene, ambient temperature, 1 h): 0%
- %-release of Hydrocodone ([1]; Toluene, ambient temperature, 4 h): 0%
- %-release of Hydrocodone ([1]; Toluene, at boiling point, 0.5 h): 0%
- %-release of Hydrocodone ([1]; Toluene, at boiling point, 1 h): 0%
- %-release of Hydrocodone ([1]; Toluene, at boiling point, 4 h): 0%
- %-release of Hydrocodone ([1]; Water, ambient temperature, 0.5 h): 0%
- %-release of Hydrocodone ([1]; Water, ambient temperature, 1 h): 0%
- %-release of Hydrocodone ([1]; Water, ambient temperature, 4 h): 0%
- %-release of Hydrocodone ([1]; Water, at boiling point, 0.5 h): 0%
- %-release of Hydrocodone ([1]; Water, at boiling point, 1 h): 0%
- %-release of Hydrocodone ([1]; Water, at boiling point, 4 h): 0%
- %-release of Hydrocodone ([1]; Xylene, ambient temperature, 0.5 h): 0%
- %-release of Hydrocodone ([1]; Xylene, ambient temperature, 1 h): 0%
- %-release of Hydrocodone ([1]; Xylene, ambient temperature, 4 h): 0%
- %-release of Hydrocodone ([1]; Xylene, at boiling point, 0.5 h): 0%
- %-release of Hydrocodone ([1]; Xylene, at boiling point, 1 h): 0%
- %-release of Hydrocodone ([1]; Xylene, at boiling point, 4 h): 0%
- release of hydrocodone from the prodrug by enzymes (in words) [2]: no significant release of hydrocodone
- plasma concentrations of intact Bz-HC [3]: < 0.025 ng/mL
- AUC value for intact Bz-HC as % of the AUC value for hydrocodone (Oral PK profiles in dogs): approximately 10%
- solubility at physiological pH (in words) ([4]; human physiological pH of 7.4 (blood)): highly insoluble
- water solubility (in words) ([4]; water): hydrophobic; also recorded: poor water solubility
- half-life ([5]; human, plasma, inhaled or intranasal): 66.6 min
- AUC(0-inf) [5, 7]: 13.3 ± 8.86 ng·h/mL
- AUC(0-t) [5, 7]: 13.2 ± 8.86 ng·h/mL
- Tmax [5, 7]: 27 min
- Tlast of Bz-HC (time of the last quantifiable concentration), median ([5]; intranasal crushed Bz-HC.HCl/APAP 13.34/650 mg): 6.22 h
- AUC for intact Bz-HC as % of the AUC value for hydrocodone [6]: approximately 10%
- AUC for intact Bz-HC as % of the AUC value for hydromorphone [6]: ~3%

From patent US10351573B2, “Benzoic acid, benzoic acid derivatives and heteroaryl carboxylic acid conjugates of hydrocodone, prodrugs, methods of making and uses thereof” (KemPharm, Inc., priority 2009, dated 2019)
